Our source for the IC50 values is patent US12098144B2, “Piperazine indazole glucocorticoid receptor antagonists” (Corcept Therapeutics Incorporated, priority 2021, dated 2024).

As a reminder, the IC50 is the midpoint of a concentration-inhibition curve.

In this assay the target is T1, glucocorticoid receptor (Homo sapiens, UniProt P04150).
T1 construct: endogenous in cells; ATCC cat
T1 sequence (P04150 1-777): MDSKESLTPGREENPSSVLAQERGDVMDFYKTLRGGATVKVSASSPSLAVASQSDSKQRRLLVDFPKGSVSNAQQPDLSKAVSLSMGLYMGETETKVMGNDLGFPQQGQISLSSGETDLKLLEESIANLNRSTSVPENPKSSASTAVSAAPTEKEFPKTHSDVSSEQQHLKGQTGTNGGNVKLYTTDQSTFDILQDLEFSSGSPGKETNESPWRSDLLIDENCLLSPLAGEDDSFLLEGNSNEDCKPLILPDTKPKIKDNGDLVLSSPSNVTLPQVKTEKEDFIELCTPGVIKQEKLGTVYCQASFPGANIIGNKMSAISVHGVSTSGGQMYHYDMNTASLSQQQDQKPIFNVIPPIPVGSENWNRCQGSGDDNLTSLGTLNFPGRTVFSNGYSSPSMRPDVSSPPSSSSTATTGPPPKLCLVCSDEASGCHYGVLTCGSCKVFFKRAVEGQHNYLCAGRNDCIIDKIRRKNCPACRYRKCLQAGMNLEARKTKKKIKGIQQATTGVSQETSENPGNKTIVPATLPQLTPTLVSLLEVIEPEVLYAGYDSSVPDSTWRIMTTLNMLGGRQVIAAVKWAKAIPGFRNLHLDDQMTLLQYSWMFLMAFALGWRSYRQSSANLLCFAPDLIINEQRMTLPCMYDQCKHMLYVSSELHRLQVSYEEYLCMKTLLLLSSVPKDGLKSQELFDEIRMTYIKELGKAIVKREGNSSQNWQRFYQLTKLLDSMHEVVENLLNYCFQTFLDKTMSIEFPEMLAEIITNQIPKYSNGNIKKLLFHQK
Description: Hep G2 TAT IC50: inhibition of dexamethasone-induced TAT in HepG2 cells (384 well). The class given is cell-based. The procedure:
Glucocorticoid mediated activation of TAT occurs by transactivation of glucocorticoid response elements in the TAT promoter by glucocorticoid receptor/agonist complex.
HepG2 cells were cultured using MEME media supplemented with 10% (v/v) foetal bovine serum, 2 mM L-glutamine, 1% (v/v) NEAA, and 1% (v/v) penstrep, at 37° C., 5%/95% (v/v) CO2/air.
Compounds were diluted from a 10 mM stock via an Echo Acoustic liquid handler into 10 μL assay media to generate a 10-point half-log dilution curve.
HepG2 cells were then lysed with 8 μL of cell lysis buffer containing a protease inhibitor cocktail for 15 minutes at 25° C. […] After a 2-hour incubation at 37° C. the reaction was terminated by the addition of 8 μL of 5 M aqueous potassium hydroxide solution, and the plates incubated for a further 30 minutes at 37° C.
[compound] and fitting the data to a 4-parameter logistic equation.
Compound `Cc1nc(S(=O)(=O)N2CCN(CC3CC(C)(C)C3)C(c3cc4cnn(-c5ccc(F)cc5)c4cc3C)C2)cs1` (single isomer, unassigned) [Example 185, 4-(4-((3,3-dimethylcyclobutyl)methyl)-3-(1-(4-fluorophenyl)-6-methyl-indazol-5-yl)piperazin-1-yl)sulfonyl-2-methyl-thiazole] had a 50% inhibitory concentration (IC50) of 1220 nM.

For the compound `Cc1nc(S(=O)(=O)N2CCN(CC3CCCC3)C(c3cc4cnn(-c5ccc(F)cc5)c4cc3C)C2)cs1` (single isomer, unassigned) [Example 186, 4-(4-(cyclopentylmethyl)-3-(1-(4-fluorophenyl)-6-methyl-indazol-5-yl)piperazin-1-yl)sulfonyl-2-methyl-thiazole], the concentration for half-maximal inhibition (IC50) stood at 2400 nM.

On to `Cc1ncc(S(=O)(=O)N2CCN(CC3CCCC3)C(c3cc4cnn(-c5ccc(F)cc5)c4cc3C)C2)s1` (single isomer, unassigned) [Example 187, 5-(4-(cyclopentylmethyl)-3-(1-(4-fluorophenyl)-6-methyl-indazol-5-yl)piperazin-1-yl)sulfonyl-2-methyl-thiazole], for which the 50% inhibitory concentration (IC50) came to 1660 nM. The compound `Cc1cc2c(cnn2-c2ccc(F)cc2)cc1C1CN(S(=O)(=O)c2cccnn2)CCN1CC(C)C` (single isomer, unassigned) [Example 190, 1-(4-fluorophenyl)-5-(1-isobutyl-4-pyridazin-3-ylsulfonyl-piperazin-2-yl)-6-methyl-indazole] came in with an IC50 of 1070 nM.

Compound `Cc1cc2c(cnn2-c2ccc(F)cc2)cc1C1CN(S(=O)(=O)N2CCOCC2)CCN1Cc1ccccc1` (single isomer, unassigned) [Example 214, 4-(4-benzyl-3-(1-(4-fluorophenyl)-6-methyl-indazol-5-yl)piperazin-1-yl)sulfonylmorpholine] yielded an IC50 of 2750 nM.

The compound `Cc1cc2c(cnn2-c2ccc(F)cc2)cc1C1CN(S(=O)(=O)N2CCOCC2)CCN1CCc1ccccc1` (single isomer, unassigned) [Example 215, 4-(3-(1-(4-fluorophenyl)-6-methyl-indazol-5-yl)-4-(2-phenylethyl)piperazin-1-yl)sulfonylmorpholine] gave a concentration for half-maximal inhibition (IC50) of 3980 nM.

In the case of `Cc1cc2c(cnn2-c2ccc(F)cc2)cc1C1CN(S(=O)(=O)c2cnn(C)n2)CCCN1CCC(F)(F)F` (stereo not drawn) [Example 173, 1-(4-fluorophenyl)-6-methyl-5-(4-(2-methyltriazol-4-yl)sulfonyl-1-(3,3,3-trifluoropropyl)-1,4-diazepan-2-yl)indazole], 2750 nM corresponded to half-maximal inhibition (IC50). The value for `CCn1cc(S(=O)(=O)N2CCN(CCC(F)(F)F)C(c3cc4cnn(-c5cc(C)c(=O)n(C)c5)c4cc3C)C2)cn1` (stereo not drawn) [Example 174, 5-(5-(4-(1-ethylpyrazol-4-yl)sulfonyl-1-(3,3,3-trifluoropropyl)piperazin-2-yl)-6-methyl-indazol-1-yl)-1,3-dimethyl-pyridin-2-one] was 191 nM. The value for `Cc1cc2c(cnn2-c2cc(C)c(=O)n(C)n2)cc1C1CN(S(=O)(=O)c2cnn(C)n2)CCN1CCC(F)(F)F` (stereo not drawn) [Example 175, 2,4-dimethyl-6-(6-methyl-5-(4-(2-methyltriazol-4-yl)sulfonyl-1-(3,3,3-trifluoropropyl)piperazin-2-yl)indazol-1-yl)pyridazin-3-one] was 1240 nM; that for `COc1cc2c(cnn2-c2ccc(F)cc2)cc1C1CN(S(=O)(=O)c2csc(C)n2)CCN1CCC(F)(F)F` (stereo not drawn) [Example 188, 4-(3-(1-(4-fluorophenyl)-6-methoxy-indazol-5-yl)-4-(3,3,3-trifluoropropyl)piperazin-1-yl)sulfonyl-2-methyl-thiazole] was 1320 nM. In the case of `COc1cc2c(cnn2-c2ccc(F)cc2)cc1C1CN(S(=O)(=O)c2csc(C)n2)CCN1CC1CCCC1` (stereo not drawn) [Example 189, 4-(4-(cyclopentylmethyl)-3-(1-(4-fluorophenyl)-6-methoxy-indazol-5-yl)piperazin-1-yl)sulfonyl-2-methyl-thiazole] it was 1660 nM; in that of `Cc1ncc(S(=O)(=O)N2CCCN(CCC(F)(F)F)C(c3cc4cnn(-c5ccc(F)cc5)c4cc3C)C2)s1` (stereo not drawn) [Example 191, 5-((3-(1-(4-fluorophenyl)-6-methyl-indazol-5-yl)-4-(3,3,3-trifluoropropyl)-1,4-diazepan-1-yl)sulfonyl)-2-methyl-thiazole], 4030 nM. For the compound `COc1cc2c(cnn2-c2ccc(F)cc2)cc1C1CN(S(=O)(=O)N2CCOCC2)CCN1CCC(F)(F)F` (stereo not drawn) [Example 192, 4-(3-(1-(4-fluorophenyl)-6-methoxy-indazol-5-yl)-4-(3,3,3-trifluoropropyl)piperazin-1-yl)sulfonylmorpholine], half-maximal inhibition (IC50) required 3160 nM. The value for `COc1cc2c(cnn2-c2ccc(F)cc2)cc1C1CN(S(=O)(=O)N2CCOCC2)CCN1CC1CC(F)(F)C1` (stereo not drawn) [Example 193, 4-(4-((3,3-difluorocyclobutyl)methyl)-3-(1-(4-fluorophenyl)-6-methoxy-indazol-5-yl)piperazin-1-yl)sulfonylmorpholine] was 2790 nM.

On to `Cc1cc2c(cnn2-c2cc(C)c(=O)n(C)c2)cc1C1CN(S(=O)(=O)c2cccnc2)CCN1CCC(F)(F)F` (stereo not drawn) [Example 194, 1,3-dimethyl-5-(6-methyl-5-(4-(3-pyridylsulfonyl)-1-(3,3,3-trifluoropropyl)piperazin-2-yl)indazol-1-yl)pyridin-2-one], for which half-maximal inhibition (IC50) was put at 443 nM.

In turn, `Cc1cc2c(cnn2-c2cc(C)c(=O)n(C)c2)cc1C1CN(S(=O)(=O)c2ccccn2)CCN1CCC(F)(F)F` (stereo not drawn) [Example 195, 1,3-dimethyl-5-(6-methyl-5-(4-(2-pyridylsulfonyl)-1-(3,3,3-trifluoropropyl)piperazin-2-yl)indazol-1-yl)pyridin-2-one] had a concentration for half-maximal inhibition (IC50) of 253 nM.

In turn, `Cc1cc2c(cnn2-c2cc(C)c(=O)n(C)c2)cc1C1CN(S(=O)(=O)N(C)C)CCN1CCC(F)(F)F` (stereo not drawn) [Example 196, 3-(1-(1,5-dimethyl-6-oxo-3-pyridyl)-6-methyl-indazol-5-yl)-N,N-dimethyl-4-(3,3,3-trifluoropropyl)piperazine-1-sulfonamide] showed a half-maximal inhibitory concentration (IC50) of 284 nM.

Turning to `Cc1cc2c(cnn2-c2ccc(=O)n(C)c2)cc1C1CN(S(=O)(=O)c2cccnc2)CCN1CCC(F)(F)F` (stereo not drawn) [Example 197, 1-methyl-5-(6-methyl-5-(4-(3-pyridylsulfonyl)-1-(3,3,3-trifluoropropyl)piperazin-2-yl)indazol-1-yl)pyridin-2-one], the half-maximal inhibitory concentration (IC50) stood at 1000 nM. The value for `Cc1cc2c(cnn2-c2ccc(=O)n(C)c2)cc1C1CN(S(=O)(=O)N2CCOCC2)CCN1CCC(F)(F)F` (stereo not drawn) [Example 198, 1-methyl-5-(6-methyl-5-(4-morpholinosulfonyl-1-(3,3,3-trifluoropropyl)piperazin-2-yl)indazol-1-yl)pyridin-2-one] was 1280 nM; that for `Cc1cc2c(cnn2-c2ccccc2)cc1C1CN(S(=O)(=O)c2cnn(C)n2)CCN1CCC(F)(F)F` (stereo not drawn) [Example 199, 6-methyl-5-(4-(2-methyltriazol-4-yl)sulfonyl-1-(3,3,3-trifluoropropyl)piperazin-2-yl)-1-phenyl-indazole] was 1320 nM. Compound `Cc1cccc(-n2ncc3cc(C4CN(S(=O)(=O)c5cnn(C)n5)CCN4CCC(F)(F)F)c(C)cc32)c1` (stereo not drawn) [Example 200, 6-methyl-5-(4-(2-methyltriazol-4-yl)sulfonyl-1-(3,3,3-trifluoropropyl)piperazin-2-yl)-1-(m-tolyl)indazole] yielded a concentration for half-maximal inhibition (IC50) of 4010 nM. The value for `Cc1cc2c(cnn2-c2cccc(C(F)F)c2)cc1C1CN(S(=O)(=O)c2cnn(C)n2)CCN1CCC(F)(F)F` (stereo not drawn) [Example 201, 1-(3-(difluoromethyl)phenyl)-6-methyl-5-(4-(2-methyltriazol-4-yl)sulfonyl-1-(3,3,3-trifluoropropyl)piperazin-2-yl)indazole] was 3850 nM.

Compound `Cc1cc2c(cnn2-c2ccc(F)c(CO)c2)cc1C1CN(S(=O)(=O)c2cnn(C)n2)CCN1CCC(F)(F)F` (stereo not drawn) [Example 202, (2-fluoro-5-(6-methyl-5-(4-(2-methyltriazol-4-yl)sulfonyl-1-(3,3,3-trifluoropropyl)piperazin-2-yl)indazol-1-yl)phenyl)methanol] showed a concentration for half-maximal inhibition (IC50) of 1040 nM. The value for `Cc1cc(-n2ncc3cc(C4CN(S(=O)(=O)c5cnn(C)n5)CCN4CCC(F)(F)F)c(C)cc32)ncn1` (stereo not drawn) [Example 203, 6-methyl-1-(6-methylpyrimidin-4-yl)-5-(4-(2-methyltriazol-4-yl)sulfonyl-1-(3,3,3-trifluoropropyl)piperazin-2-yl)indazole] was 9330 nM.
